± gives the expanded uncertainty stated by the source.

The conditions of this data set: 101.33 kPa, Liquid; for viscosity: Capillary tube (Ostwald / Ubbelohde) method; for mass density: Pycnometric method; for speed of sound: Sing-around technique in a fixed-path interferometer.

Consider `CCC(C)=O` [butanone], for which, where the note is “303.15 K”, the viscosity is 0.352 ± 0.009 mPa·s, the mass density was determined as 802.5 ± 3.7 kg/m3 and the speed of sound stood at 1168.6 ± 6.9 m/s. Further, where the note is “308.15 K”, the viscosity stood at 0.334 ± 0.009 mPa·s, the mass density turned out to be 800.1 ± 3.6 kg/m3 and the speed of sound stood at 1157.2 ± 6.9 m/s. Further, under “313.15 K”, the viscosity was 0.315 ± 0.008 mPa·s, the mass density came to 800.3 ± 3.7 kg/m3 and the speed of sound is listed as 1130.4 ± 6.8 m/s.

As for `CN(C)C=O` [dimethylformamide], under “303.15 K”, the viscosity turned out to be 0.715 ± 0.018 mPa·s, the mass density is 927.2 ± 4.9 kg/m3 and the speed of sound is reported as 1404.6 ± 7.5 m/s. In addition, where the note is “308.15 K”, the viscosity is reported as 0.693 ± 0.018 mPa·s, the mass density is listed as 919.7 ± 4.8 kg/m3 and the speed of sound is reported as 1400.8 ± 7.5 m/s. Also, where the note is “313.15 K”, the viscosity was determined as 0.677 ± 0.018 mPa·s, the mass density is recorded as 916.4 ± 4.8 kg/m3 and the speed of sound worked out at 1420.8 ± 7.6 m/s.

`CCO` [ethanol]: for the setting “303.15 K”, the mass density turned out to be 772.4 ± 3.4 kg/m3 and the speed of sound stood at 1135.4 ± 6.8 m/s. In addition, under “308.15 K”, the viscosity is given as 0.658 ± 0.017 mPa·s, the mass density is 771.6 ± 3.4 kg/m3 and the speed of sound amounted to 1133.2 ± 6.8 m/s. Moreover, where the note is “313.15 K”, the viscosity stood at 0.617 ± 0.016 mPa·s, the mass density is 771.2 ± 3.4 kg/m3 and the speed of sound came out at 1130.8 ± 6.8 m/s.

For the origin of these results see the NIST ThermoML archive (doi:10.1016/j.fluid.2007.08.006).
